Experimental findings from patent US5364966A, “Amide derivatives, their production processes and their compositions for the control of insect pests” (Sumitomo Chemical Company, Limited, priority 1991, dated 1994) are described below.

Experiment [1] deals with brown rice planthopper (Nilaparvata lugens). Put plainly: Metamorphosis inhibitory activity against brown rice planthopper nymphs. The experiment is classed as in vivo. To be noted: sprayed rice plants, 3rd instar nymphs, after 10 days. Here is the method: Metamorphosis inhibitory activity against brown rice planthopper nymphs
An emulsifiable concentrate prepared according to Formulation Example 1 was diluted with water to make a predetermined concentration. The dilution was sprayed onto rice plants cultivated in polyethylene cups at a rate of 20 ml/2 pots on a turning table. After air-drying, the plants were infested with about ten 3rd instar nymphs of brown rice planthopper (Nilaparvata lugens). After 10 days, the number of normal adults was counted to obtain an emergence inhibitory rate.

Experiment [2] has as its system cotton aphids (Aphis gossypil). Kind of experiment: Reproduction inhibitory activity against cotton aphids. The settings on record: 10 ppm; sprayed potted cotton plants infested with 1st instar nymphs, one week after spraying. The experiment is classed as in vivo. The method, then: Reproduction inhibitory activity against cotton aphids
An emulsifiable concentrate prepared according to Formulation Example 1 was diluted with water to make a predetermined concentration. The dilution was sprayed onto potted cotton plants (in a stage of 8-9 days after sowing) infested with 1st instar nymphs of cotton aphids (Aphis gossypil) at a rate of 30 ml/2 pots on a turning table. Before spraying and one week after spraying, the humber of nymphs and aduts was counted, and a reproduction inhibitory index was expressed by the following equation: [formula] wherein the judgement of activity is based on the following standard: A: less than 1 (excellent effect)

Where [3] appears, read: Nilaparvata lugens, 240 h, 5 ppm, read-out: Inhibitory rate (emergence inhibitory rate).
The mark [4] stands for this setting: Nilaparvata lugens, 240 h, 0.05 ppm, read-out: Inhibitory rate (emergence inhibitory rate).

`O=C(NCCOc1ccc(Oc2ccc(F)cc2F)cc1Cl)C1CC1` [compound 7, N-{2-[2-Chloro-4-(2,4-difluorophenoxy)phenoxy]ethyl}-cyclopropane carboxyamide]: in experiment [1] (setting [3]), the inhibition at 5 ppm is 100%.

Take `S=C(NCCOc1ccc(Cc2ccccc2)cc1Cl)C1CC1` [Compound No. 3, N-[2-(4-Benzyl-2-chlorophenoxy)ethyl]-cyclopropane thiocarboxyamide]: the inhibition at 0.05 ppm in experiment [1] (setting [4]) was 100%. The inhibition at 5 ppm in experiment [1] (setting [3]) turned out to be 100%.

For `O=C(NCCOc1ccc(Oc2cccc(F)c2)cc1Cl)C1CC1` [compound 5, N-{2-[2-Chloro-4-(3-fluorophenoxy)phenoxy]ethyl}-cyclopropane carboxyamide], the inhibition at 0.05 ppm in experiment [1] (setting [4]) came out at 100%. Further, in experiment [1] (setting [3]), the inhibition at 5 ppm was found to be 100%.

Regarding `O=C(NCCOc1ccc(Oc2ccccc2)cc1)C1CC1` [A, reference compound], the inhibition at 5 ppm in experiment [1] (setting [3]) is 0%.

Consider `CCC(CC)Cc1ccc(OCCNC(=O)C2CC2)c(Cl)c1` [compound 12, N-{2-[2-Chloro-4-(2-ethylbutyl)phenoxy]ethyl}-cyclopropane carboxyamide], for which the inhibition at 0.05 ppm in experiment [1] (setting [4]) came to 100%. In experiment [1] (setting [3]), the inhibition at 5 ppm came out at 100%.

For the compound `CCC(C)Oc1ccc(OCCNC(=S)C2CC2)c(Cl)c1` (stereo not drawn) [compound 11, N-{2-[2-Chloro-4-(1-methylpropoxy)phenoxy]ethyl}-cyclopropane thiocarboxyamide], the “Inhibitory rate (emergence inhibitory rate)” value in experiment [1] (0.05 ppm) and in experiment [1] (5 ppm) was 100% each time.

On to `O=C(NCCOc1ccc(Cc2ccccc2)cc1Cl)C1CC1` [compound 13, N-[2-(4-Benzyl-2-chlorophenoxy)ethyl]-cyclopropane carboxyamide], for which the inhibition at 0.05 ppm in experiment [1] (setting [4]) stood at 100%. Further, the inhibition at 5 ppm in experiment [1] (setting [3]) was determined as 100%.

Turning to `O=C(NCCOc1ccc(Oc2cc(F)cc(F)c2)cc1Cl)C1CC1` [Compound No. 1, N-{2-[2-Chloro-4-(3,5-difluorophenoxy)phenoxy]ethyl}-cyclopropane carboxyamide], in experiment [1] (setting [4]), the inhibition at 0.05 ppm worked out at 100%. For the same compound, the inhibition at 5 ppm in experiment [1] (setting [3]) was found to be 100%. Besides, the reproduction inhibitory index result in experiment [2] is given as “A (less than 1 (excellent effect))”.

`CC(C)COCc1ccc(OCCNC(=O)C2CC2)c(Cl)c1` [Compound No. 10, N-{2-[2-Chloro-4-(2-methylpropoxymethyl)phenoxy]ethyl}-cyclopropane carboxyamide]: the inhibition at 0.05 ppm in experiment [1] (setting [4]) is 100%. In experiment [1] (setting [3]), the inhibition at 5 ppm stood at 100%.

With `O=C(NCCOc1cc(Oc2ccccc2)ccc1Cl)C1CC1` [compound 8, N-[2-(2-Chloro-5-phenoxyphenoxy)ethyl]-cyclopropane carboxyamide], the inhibition at 0.05 ppm in experiment [1] (setting [4]) came to 100%. In addition, the inhibition at 5 ppm in experiment [1] (setting [3]) was 100%.

In the case of `CCC(C)Oc1ccc(OCCNC(=O)C2CC2)c(Cl)c1` (stereo not drawn) [Compound No. 14, N-{2-[2-Chloro-4-(1-methylpropoxy)phenoxy]ethyl}-cyclopropane carboxyamide], the inhibition at 0.05 ppm in experiment [1] (setting [4]) came out at 100%. The inhibition at 5 ppm in experiment [1] (setting [3]) turned out to be 100%.

For `O=C(NCCOc1ccc(Oc2ccccc2)cc1Cl)C1CC1` [compound 15, N-[2-(2-Chloro-4-phenoxyphenoxy)ethyl]-cyclopropane carboxyamide], the inhibition at 5 ppm in experiment [1] (setting [3]) was 100%.

Take `O=C(NCCOc1ccc(Oc2cccc(Cl)c2)cc1Cl)C1CC1` [compound 6, N-{2-[2-Chloro-4-(3-chlorophenoxy)phenoxy]ethyl}-cyclopropane carboxyamide]: the inhibition at 0.05 ppm in experiment [1] (setting [4]) came out at 100%. For the same compound, the inhibition at 5 ppm in experiment [1] (setting [3]) is 100%.

As to `S=C(NCCOc1ccc(Oc2cccc(Cl)c2)cc1Cl)C1CC1` [compound 16, N-{2-[2-Chloro-4-(3-chlorophenoxy)phenoxy]ethyl}-cyclopropane thiocarboxyamide], the inhibition at 0.5 ppm in experiment [1] (Nilaparvata lugens, 240 h, 0.5 ppm, read-out: Inhibitory rate (emergence inhibitory rate)) came out at 100%.

As to `Fc1cc(F)cc(Oc2ccc(OCCNC(=S)C3CC3)c(Cl)c2)c1` [compound 4, N-{2-[2-Chloro-4-(3,5-difluorophenoxy)phenoxy]ethyl}-cyclopropane thiocarboxyamide], in experiment [1] (setting [4]), the inhibition at 0.05 ppm came out at 100%. Further, in experiment [1] (setting [3]), the inhibition at 5 ppm came out at 100%.
